Results: the NIST ThermoML archive (doi:10.1016/j.jct.2018.02.025)
“And” between values parts separate entries of the source, which are not always exact repeats. Equal entries are not always repeated.

Conditions: Transpiration method

c1ccc(-c2ccccc2)cc1 [biphenyl]
Conditions	vapor or sublimation pressure
295.4 K, Crystal	0.00091 kPa
298.2 K, Crystal	0.00126 kPa
303.3 K, Crystal	0.00236 kPa
308.2 K, Crystal	0.00383 kPa
313.2 K, Crystal	0.00653 kPa
315.4 K, Crystal	0.00777 kPa
318.3 K, Crystal	0.01045 kPa
323.5 K, Crystal	0.01637 kPa
325.8 K, Crystal	0.02135 kPa
328.4 K, Crystal	0.02749 kPa
331.3 K, Crystal	0.03389 kPa
333.4 K, Crystal	0.0404 kPa
335.8 K, Crystal	0.04928 kPa
338.4 K, Crystal	0.06189 kPa
345.7 K, Liquid	0.1041 kPa
347.7 K, Liquid	0.1176 kPa
348.3 K, Liquid	0.1226 kPa
350.4 K, Liquid	0.1376 kPa
353.3 K, Liquid	0.1597 kPa
358.3 K, Liquid	0.2153 kPa
363.3 K, Liquid	0.2837 kPa
368.2 K, Liquid	0.3498 kPa and 0.3659 kPa
373.1 K, Liquid	0.4791 kPa
375.4 K, Liquid	0.5425 kPa
376.2 K, Liquid	0.5682 kPa
